Results on two compounds are retold here after patent US6299861A, “Ipratropium bromide enantiomer with prolonged duration of effect” (Boehringer Ingelheim KG, priority 1995, dated 2001).

The assay deals with acetylcholine-induced bronchospasm. As to the kind of experiment: Inhibition of acetylcholine-induced bronchospasm in the anaesthetised dog after administration by inhalation. Conditions: aerosol, FIG. 1; for peak inhibition of acetylcholine-induced bronchospasm: 5 μg L-(-)-enantiomer (curve B) or 10 μg racemate (curve A); for time at which peak inhibition of bronchospasm is reached / time until inhibition of bronchospasm has fallen back to initial/starting level: 5 μg L-(-)-enantiomer or 10 μg racemate.

Protocol: 5 μg of the pure L-(-)-enantiomer and, accordingly, 10 μg of the racemate were administered.

Regarding `CC(C)[N+]1(C)C2CCC1CC(OC(=O)C(CO)c1ccccc1)C2` (single isomer, unassigned) [BIIH 150 BR, (endo, syn)-(-)-3-(3-hydroxy-l-oxo-2-phenylpropoxy)-8-methyl-8-(1-methylethyl)-8-azoniabicyclo [3,2,1]octane], the “peak inhibition of acetylcholine-induced bronchospasm” value was 60%, the “time at which peak inhibition of bronchospasm is reached” value is “about 10 minutes” and the “time until inhibition of bronchospasm has fallen back to initial/starting level” value is 180 min.

Regarding `CC(C)[N+]1(C)C2CCC1CC(OC(=O)C(CO)c1ccccc1)C2` (stereo not drawn) [Ipratropium bromide], the “peak inhibition of acetylcholine-induced bronchospasm” value is “about 55%”, the “time at which peak inhibition of bronchospasm is reached” value is on record as “about 10 minutes” and the “time until inhibition of bronchospasm has fallen back to initial/starting level” value was determined as 60 min.
